According to PubChem BioAssay (NCI):
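All cell lines were grown in 96-well plates and treated with compound for 48 hours. GI50 marks 50% less growth. TGI: concentration producing complete growth inhibition.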

What was measured:
Experiment in all cases: inhibition of tumour cell growth, NCI panel, 48 h
786-0 renal = test system: 786-0 renal
A549 NSCLC = test system: A549 NSCLC
ACHN renal = test system: ACHN renal
CAKI-1 renal = test system: CAKI-1 renal
CCRF-CEM leukemia = test system: CCRF-CEM leukemia
COLO 205 colon = test system: COLO 205 colon
DLD-1 colon = test system: DLD-1 colon
DMS 273 small cell lung = test system: DMS 273 small cell lung
EKVX NSCLC = test system: EKVX NSCLC
HCC-2998 colon = test system: HCC-2998 colon
HCT-116 colon = test system: HCT-116 colon
HCT-15 colon = test system: HCT-15 colon
HL-60(TB) leukemia = test system: HL-60(TB) leukemia
HOP-18 NSCLC = test system: HOP-18 NSCLC
HOP-62 NSCLC = test system: HOP-62 NSCLC
HOP-92 NSCLC = test system: HOP-92 NSCLC
HT29 colon = test system: HT29 colon
IGROV1 ovarian = test system: IGROV1 ovarian
K-562 leukemia = test system: K-562 leukemia
KM12 colon = test system: KM12 colon
KM20L2 colon = test system: KM20L2 colon
LOX IMVI melanoma = test system: LOX IMVI melanoma
LXFL 529 NSCLC = test system: LXFL 529 NSCLC
M14 melanoma = test system: M14 melanoma
M19-MEL melanoma = test system: M19-MEL melanoma
MALME-3M melanoma = test system: MALME-3M melanoma
MOLT-4 leukemia = test system: MOLT-4 leukemia
NCI-H226 lung = test system: NCI-H226 lung
NCI-H23 lung = test system: NCI-H23 lung
NCI-H460 lung = test system: NCI-H460 lung
NCI-H522 lung = test system: NCI-H522 lung
OVCAR-3 ovarian = test system: OVCAR-3 ovarian
OVCAR-4 ovarian = test system: OVCAR-4 ovarian
OVCAR-5 ovarian = test system: OVCAR-5 ovarian
OVCAR-8 ovarian = test system: OVCAR-8 ovarian
RPMI-8226 leukemia = test system: RPMI-8226 leukemia
RXF 393 renal = test system: RXF 393 renal
SF-268 CNS = test system: SF-268 CNS
SF-295 CNS = test system: SF-295 CNS
SF-539 CNS = test system: SF-539 CNS
SK-MEL-2 melanoma = test system: SK-MEL-2 melanoma
SK-MEL-28 melanoma = test system: SK-MEL-28 melanoma
SK-MEL-5 melanoma = test system: SK-MEL-5 melanoma
SK-OV-3 ovarian = test system: SK-OV-3 ovarian
SN12C renal = test system: SN12C renal
SNB-19 CNS = test system: SNB-19 CNS
SNB-75 CNS = test system: SNB-75 CNS
SNB-78 CNS = test system: SNB-78 CNS
SW-620 colon = test system: SW-620 colon
TK-10 renal = test system: TK-10 renal
U251 CNS = test system: U251 CNS
UACC-257 melanoma = test system: UACC-257 melanoma
UACC-62 melanoma = test system: UACC-62 melanoma
UO-31 renal = test system: UO-31 renal
DMS 114 small cell lung = test system: DMS 114 small cell lung
SR leukemia = test system: SR leukemia
A498 renal = test system: A498 renal
XF 498 CNS = test system: XF 498 CNS

COC(=O)C[CH2][Ge]([CH3])([CH3])[S]c1ccccc1
GI50 (786-0 renal): 21.6 µM
TGI (786-0 renal): 45 µM
GI50 (A549 NSCLC): 30.6 µM
TGI (A549 NSCLC): > 100 µM
GI50 (ACHN renal): 28.6 µM
TGI (ACHN renal): 88.4 µM
GI50 (CAKI-1 renal): 40.2 µM
TGI (CAKI-1 renal): 79.1 µM
GI50 (CCRF-CEM leukemia): 5.27 µM
TGI (CCRF-CEM leukemia): 24.3 µM
GI50 (COLO 205 colon): 30.4 µM
TGI (COLO 205 colon): 69.9 µM
GI50 (DLD-1 colon): 20.3 µM
TGI (DLD-1 colon): 42.9 µM
GI50 (DMS 273 small cell lung): 42.6 µM
TGI (DMS 273 small cell lung): > 100 µM
GI50 (EKVX NSCLC): 28.2 µM
TGI (EKVX NSCLC): 86.4 µM
TGI (HCC-2998 colon): > 100 µM
GI50 (HCT-116 colon): 33.4 µM
TGI (HCT-116 colon): > 100 µM
GI50 (HCT-15 colon): 15.4 µM
TGI (HCT-15 colon): 28.8 µM
GI50 (HL-60(TB) leukemia): 12.2 µM
TGI (HL-60(TB) leukemia): 31.4 µM
GI50 (HOP-18 NSCLC): > 100 µM
TGI (HOP-18 NSCLC): > 100 µM
GI50 (HOP-62 NSCLC): 22.6 µM
TGI (HOP-62 NSCLC): 65.4 µM
GI50 (HOP-92 NSCLC): 17.7 µM
TGI (HOP-92 NSCLC): 92.8 µM
GI50 (HT29 colon): 44.2 µM
TGI (HT29 colon): > 100 µM
GI50 (IGROV1 ovarian): 1250 nM
TGI (IGROV1 ovarian): 4.72 µM
GI50 (K-562 leukemia): 34.8 µM
TGI (K-562 leukemia): > 100 µM
GI50 (KM12 colon): 36 µM
TGI (KM12 colon): > 100 µM
GI50 (KM20L2 colon): 38.4 µM
TGI (KM20L2 colon): > 100 µM
GI50 (LOX IMVI melanoma): 12.5 µM
TGI (LOX IMVI melanoma): 26.2 µM
GI50 (LXFL 529 NSCLC): 24 µM
TGI (LXFL 529 NSCLC): 81.1 µM
GI50 (M14 melanoma): 36.5 µM
TGI (M14 melanoma): > 100 µM
GI50 (M19-MEL melanoma): 36.8 µM
TGI (M19-MEL melanoma): > 100 µM
GI50 (MALME-3M melanoma): > 100 µM
TGI (MALME-3M melanoma): > 100 µM
GI50 (MOLT-4 leukemia): 8.31 µM
TGI (MOLT-4 leukemia): 33.5 µM
GI50 (NCI-H226 lung): 27.4 µM
TGI (NCI-H226 lung): > 100 µM
GI50 (NCI-H23 lung): 43.3 µM
TGI (NCI-H23 lung): > 100 µM
GI50 (NCI-H460 lung): 16.9 µM
TGI (NCI-H460 lung): 30.6 µM
GI50 (NCI-H522 lung): 10.8 µM
TGI (NCI-H522 lung): 23.2 µM
GI50 (OVCAR-3 ovarian): 29.9 µM
TGI (OVCAR-3 ovarian): > 100 µM
GI50 (OVCAR-4 ovarian): 25.3 µM
TGI (OVCAR-4 ovarian): > 100 µM
GI50 (OVCAR-5 ovarian): 29.5 µM
TGI (OVCAR-5 ovarian): > 100 µM
GI50 (OVCAR-8 ovarian): 25.2 µM
TGI (OVCAR-8 ovarian): 83.8 µM
GI50 (RPMI-8226 leukemia): 22.4 µM
TGI (RPMI-8226 leukemia): 58.1 µM
GI50 (RXF 393 renal): 4.08 µM
TGI (RXF 393 renal): 23.3 µM
GI50 (SF-268 CNS): 18.2 µM
TGI (SF-268 CNS): 43.7 µM
GI50 (SF-295 CNS): 18 µM
TGI (SF-295 CNS): 62.3 µM
GI50 (SF-539 CNS): 21.1 µM
TGI (SF-539 CNS): 39.8 µM
GI50 (SK-MEL-2 melanoma): 27.4 µM
TGI (SK-MEL-2 melanoma): 71.8 µM
GI50 (SK-MEL-28 melanoma): 36 µM
TGI (SK-MEL-28 melanoma): > 100 µM
GI50 (SK-MEL-5 melanoma): 32.6 µM
TGI (SK-MEL-5 melanoma): > 100 µM
GI50 (SK-OV-3 ovarian): 23.5 µM
TGI (SK-OV-3 ovarian): 67.8 µM
GI50 (SN12C renal): 18.3 µM
TGI (SN12C renal): 37.2 µM
GI50 (SNB-19 CNS): 32.2 µM
TGI (SNB-19 CNS): 81.8 µM
GI50 (SNB-75 CNS): 31.4 µM
TGI (SNB-75 CNS): > 100 µM
GI50 (SNB-78 CNS): 59.5 µM
TGI (SNB-78 CNS): > 100 µM
GI50 (SW-620 colon): 16.7 µM
TGI (SW-620 colon): 31.4 µM
GI50 (TK-10 renal): 55.7 µM
TGI (TK-10 renal): > 100 µM
GI50 (U251 CNS): 17.7 µM
TGI (U251 CNS): 44.1 µM
GI50 (UACC-257 melanoma): 51.2 µM
TGI (UACC-257 melanoma): > 100 µM
GI50 (UACC-62 melanoma): 21.9 µM
TGI (UACC-62 melanoma): 60.9 µM
GI50 (UO-31 renal): 15.6 µM
TGI (UO-31 renal): 33.1 µM

Cc1ccc(NC(=O)CC/C(CC(=O)C(C)(C)C)=N/NC(=O)C[N+](C)(C)C)cc1C
TGI (786-0 renal): 52.9 µM
TGI (A549 NSCLC): 59.4 µM
TGI (ACHN renal): > 100 µM
TGI (CAKI-1 renal): > 100 µM
TGI (CCRF-CEM leukemia): > 100 µM
TGI (COLO 205 colon): > 100 µM
TGI (DLD-1 colon): > 100 µM
TGI (DMS 114 small cell lung): > 100000 nM
TGI (EKVX NSCLC): > 100 µM
TGI (HCC-2998 colon): > 100 µM
TGI (HCT-116 colon): > 100 µM
TGI (HCT-15 colon): > 100 µM
TGI (HL-60(TB) leukemia): > 100 µM
TGI (HOP-18 NSCLC): > 100 µM
TGI (HOP-62 NSCLC): > 100 µM
TGI (HT29 colon): > 100 µM
TGI (IGROV1 ovarian): > 100 µM
TGI (K-562 leukemia): > 100 µM
TGI (KM12 colon): > 100 µM
TGI (KM20L2 colon): > 100 µM
TGI (LOX IMVI melanoma): > 100 µM
TGI (LXFL 529 NSCLC): > 100 µM
TGI (M14 melanoma): > 100 µM
TGI (M19-MEL melanoma): > 100 µM
TGI (MALME-3M melanoma): > 100 µM
TGI (MOLT-4 leukemia): > 100 µM
TGI (NCI-H226 lung): > 100 µM
TGI (NCI-H23 lung): > 100 µM
TGI (NCI-H460 lung): > 100 µM
TGI (OVCAR-3 ovarian): > 100 µM
TGI (OVCAR-4 ovarian): > 100 µM
TGI (OVCAR-5 ovarian): > 100 µM
TGI (OVCAR-8 ovarian): > 100 µM
TGI (RXF 393 renal): > 100 µM
TGI (SF-268 CNS): > 100 µM
TGI (SF-295 CNS): > 100 µM
TGI (SF-539 CNS): 44.8 µM
TGI (SK-MEL-2 melanoma): > 100 µM
TGI (SK-MEL-28 melanoma): > 100 µM
TGI (SK-MEL-5 melanoma): > 100 µM
TGI (SK-OV-3 ovarian): > 100 µM
TGI (SN12C renal): > 100 µM
TGI (SNB-19 CNS): > 100 µM
TGI (SNB-78 CNS): > 100 µM
TGI (SR leukemia): > 100 µM
TGI (SW-620 colon): > 100 µM
TGI (TK-10 renal): > 100 µM
TGI (U251 CNS): > 100 µM
TGI (UACC-257 melanoma): > 100 µM
TGI (UACC-62 melanoma): > 100 µM
TGI (UO-31 renal): > 100 µM

COC(=O)NC(=Nc1ccc(Oc2ccccc2)cc1NC=O)NC(=O)OC
TGI (786-0 renal): > 100 µM
TGI (A498 renal): 1080 nM
TGI (A549 NSCLC): > 100 µM
TGI (ACHN renal): > 100 µM
TGI (CCRF-CEM leukemia): > 100 µM
TGI (COLO 205 colon): 0.618 µM
TGI (DLD-1 colon): > 100 µM
TGI (DMS 114 small cell lung): 864 nM
TGI (EKVX NSCLC): > 100 µM
TGI (HCC-2998 colon): 5.27 µM
TGI (HCT-116 colon): 28 µM
TGI (HL-60(TB) leukemia): 0.707 µM
TGI (HOP-18 NSCLC): > 100 µM
TGI (HOP-62 NSCLC): > 100 µM
TGI (HOP-92 NSCLC): > 100 µM
TGI (HT29 colon): 2.96 µM
TGI (IGROV1 ovarian): > 100 µM
TGI (K-562 leukemia): > 100 µM
TGI (KM12 colon): > 100 µM
TGI (KM20L2 colon): 0.49 µM
TGI (LOX IMVI melanoma): > 100 µM
TGI (LXFL 529 NSCLC): > 100 µM
TGI (M14 melanoma): > 100 µM
TGI (M19-MEL melanoma): > 100 µM
TGI (MALME-3M melanoma): > 100 µM
TGI (MOLT-4 leukemia): > 100 µM
TGI (NCI-H226 lung): 9.4 µM
TGI (NCI-H23 lung): > 100 µM
TGI (NCI-H522 lung): 0.449 µM
TGI (OVCAR-4 ovarian): > 100 µM
TGI (OVCAR-5 ovarian): > 100 µM
TGI (OVCAR-8 ovarian): 8.57 µM
TGI (RPMI-8226 leukemia): > 100 µM
TGI (SF-268 CNS): > 100 µM
TGI (SF-295 CNS): > 100 µM
TGI (SF-539 CNS): 2.49 µM
TGI (SK-MEL-5 melanoma): > 100 µM
TGI (SK-OV-3 ovarian): 0.526 µM
TGI (SN12C renal): > 100 µM
TGI (SNB-19 CNS): > 100 µM
TGI (SNB-75 CNS): > 100 µM
TGI (SW-620 colon): > 100 µM
TGI (TK-10 renal): > 100 µM
TGI (U251 CNS): 1.21 µM
TGI (UACC-257 melanoma): > 100 µM
TGI (UACC-62 melanoma): > 100 µM
TGI (UO-31 renal): 69.6 µM
TGI (XF 498 CNS): 6.75 µM
